Data: publication PMC6149822, “A New Series of Pyrrole-Based Chalcones: Synthesis and Evaluation of Antimicrobial Activity, Cytotoxicity, and Genotoxicity” (Molecules : A Journal of Synthetic Chemistry and Natural …, 2017)
Converted amounts (≈) assume the structure as drawn.

Legend:
[1] = system: E. coli (ATCC 25922); experiment: Microdilution susceptibility assay (MIC); type: cell-based; details: Escherichia coli, ATCC25922
Protocol: (§1) Compounds 1–10 were screened for their antimicrobial activity against gram-negative bacteria, gram-positive bacteria, and yeasts, listed in Table 1. Bacteria were grown in Mueller-Hinton Broth and yeasts were grown in Sabouraud Dextrose Broth (SDB) during experiments. Overnight cultures were prepared routinely by subculturing of stock culture onto Mueller-Hinton Agar for bacteria and Sabouraud Dextrose Agar for yeasts.
(§2) Microdilution susceptibility assay was used for the determination of antibacterial and anticandidal efficacy of compounds 1–10. Chloramphenicol and ketoconazole were used as positive controls for bacteria and yeasts, respectively. All experiments were designed according to the Clinical Laboratory Standards Institute (CLSI). All chemicals were dissolved in dimethyl sulfoxide (DMSO) to obtain stock solution (10 mg/mL). Two-fold serial dilutions (800, 400, 200...0.78 µg/mL) of the compounds were prepared from stock solutions with dH2O. 100 µL of each solution was transferred to 96-well microtiter plates and 100 µL of 10^6 CFU/mL of bacteria and 2 × 10^3 of CFU/mL yeast were added to related wells. As negative controls, wells including microorganisms without agents and wells including agents without microorganisms were used. The plates were kept at 35 °C for 18–20 h and the growth was determined with resazurin (20 mg/mL). Assays were carried out in triplicate.

[2] = system: E. faecalis (ATCC 29212); experiment: Microdilution susceptibility assay (MIC); type: cell-based; details: Enterococcus faecalis, ATCC29212
Protocol: as §1, §2

[3] = system: E. faecalis (ATCC 51299); experiment: Microdilution susceptibility assay (MIC); type: cell-based; details: Enterococcus faecalis, ATCC51299
Protocol: as §1, §2

[4] = system: K. pneumoniae (ATCC 700603); experiment: Microdilution susceptibility assay (MIC); type: cell-based; details: Klebsiella pneumoniae, ATCC700603
Protocol: as §1, §2

[5] = system: S. aureus (ATCC 25923); experiment: Microdilution susceptibility assay (MIC); type: cell-based; details: Staphylococcus aureus, ATCC25923
Protocol: as §1, §2

[6] = system: A549 human lung adenocarcinoma cell line; experiment: MTT assay; type: cell-based; details: for IC50: Homo sapiens, A549
Protocol: (§3) The anticancer effects of compounds 1–10 on A549 human lung adenocarcinoma (ATCC® CCL-185™), HepG2 human hepatocellular carcinoma (ATCC® HB-8065™), and C6 rat glioma (ATCC® CCL107™) cell lines were assessed using 3-(4,5-Dimethylthiazol-2-yl)-2,5-diphenyltetrazolium bromide (MTT) assay, whereas the selectivity of compounds 1–10 was tested using NIH/3T3 mouse embryonic fibroblast cell line (ATCC® CRL-1658™, London, UK). All cell lines were incubated according to the supplier’s recommendations. The cells were seeded as 1 × 10^4 cells into each well of the 96-well plates. MTT assay was performed as previously described. The compounds were tested between the concentrations equal to 1 mM and 0.000316 mM (1.0, 0.316, 0.10, 0.0316, 0.01, 0.00316, 0.001, 0.000316 mM). Stock solutions of compounds were prepared in dimethyl sulfoxide (DMSO) and further dilutions were made with fresh culture medium. The final DMSO concentration was under 1% [34] and cisplatin was used as a positive control. Inhibition % was calculated for each concentration according to the formula below, and IC50 values were determined by plotting a dose–response curve of inhibition % versus compound concentrations tested. All experiments were performed in quadruplicate.Inhibition % = 100 − [(ODtest compound − ODblank/ODsolvent control − ODblank)] × 100(1)

[7] = system: C6 rat glioma cell line; experiment: MTT assay; type: cell-based; details: for IC50: Rattus norvegicus, C6
Protocol: as §3

[8] = system: HepG2 human hepatocellular carcinoma cell line; experiment: MTT assay; type: cell-based; details: for IC50: Homo sapiens, HepG2
Protocol: as §3

[9] = system: NIH/3T3 mouse embryonic fibroblast cell line; experiment: MTT assay; type: cell-based; details: for IC50: Mus musculus, NIH3T3, healthy cells for selectivity
Protocol: as §3

[10] = system: C. albicans (ATCC 90028); experiment: Microdilution susceptibility assay (MIC); type: cell-based; details: Candida albicans, ATCC90028
Protocol: as §1, §2

[11] = system: C. glabrata (ATCC 90030); experiment: Microdilution susceptibility assay (MIC); type: cell-based, Candida glabrata; details: Nakaseomyces glabratus, ATCC90030
Protocol: as §1, §2

[12] = system: C. parapsilosis (ATCC 22019); experiment: Microdilution susceptibility assay (MIC); type: cell-based, Candida parapsilosis; details: Lodderomyces parapsilosis, ATCC22019
Protocol: as §1, §2

[13] = system: C. krusei (ATCC 6258); experiment: Microdilution susceptibility assay (MIC); type: cell-based, Candida krusei; details: Pichia kudriavzevii, ATCC6258
Protocol: as §1, §2

[14] = system: E. faecalis (ATCC 29212); experiment: ATP luminescence microbial cell viability assay; type: cell-based, Enterococcus faecalis; details: 24 h treatment, result in words
Protocol: (§4) A model from BioTek Instruments Inc. combined with a BacTiter-Glo^TM Microbial Cell Viability assay (Promega Corp., Madison, WI, USA) was used to provide a sensitive and rapid method for determining the number of viable microbial cells in culture based on quantitation of the ATP present. […] After incubation, cultures were added into the wells (final concentration of bacteria was 5 × 10^5 CFU/mL and 2.5 × 10^6 CFU/mL for yeasts). After adding the BacTiter reagent, incubation time for bacteria and yeasts was 5 min and 15 min, respectively.
(§5) The assay generates a “glow-type” luminescent signal, produced by the luciferase reaction. Briefly, after chemicals and strains were incubated for 24 h, 100 µL of the culture was taken from each well and mixed with the same volume of the BacTiter-Glo™ reagent in a white, opaque-walled microtiter plate. Control wells containing medium without cells were prepared to obtain a value for background luminescence. Cells without compound were used as an ATP-positive control. The microplates were further incubated under agitation for 7 min. Bioluminescence was recorded in a multi-detection microplate reader (BioTek Synergy 2 Multi-Mode Microplate Reader, BioTek Instruments, Winooski, VT, USA). In Figure 3, results were given as percentage of untreated control, which is set at 100%. Experiments were performed in triplicate and each sample was measured in four replicates.

[15] = system: E. faecalis (ATCC 51299); experiment: ATP luminescence microbial cell viability assay; type: cell-based, Enterococcus faecalis; details: 24 h treatment, result in words
Protocol: as §4, §5

[16] = system: C. glabrata; experiment: ATP luminescence microbial cell viability assay; type: cell-based, Candida glabrata; details: 24 h treatment, result in words
Protocol: as §4, §5

| Structure (SMILES) | MIC [1] [µg/mL] | MIC [2] [µg/mL] | MIC [3] [µg/mL] | MIC [4] [µg/mL] | MIC [5] [µg/mL] | MIC [10] [µg/mL] | MIC [11] [µg/mL] | MIC [12] [µg/mL] | MIC [13] [µg/mL] | IC50 [6] [µg/mL] | IC50 [7] [µg/mL] | IC50 [8] [µg/mL] | melting point [°C] | antimicrobial activity in ATP bioluminescence assay [14] | IC50 [9] [µg/mL] | also measured |
| --- | --- | --- | --- | --- | --- | --- | --- | --- | --- | --- | --- | --- | --- | --- | --- | --- |
| N.N.[Cl][Pt][Cl] [Cisplatin, reference compound] | – | – | – | – | – | – | – | – | – | – | – | – | – | – | – | IC50 A549 Cell Line [6]: 19 µg/mL; IC50 C6 Cell Line [7]: 46 µg/mL; IC50 HepG2 Cell Line [8]: 38 µg/mL; IC50 NIH/3T3 Cell Line ([9]; healthy cells for selectivity): >300 µg/mL |
| Cn1cccc1C(=O)C=Cc1ccc(-c2ccc(Cl)cc2[N+](=O)[O-])o1 [Compound 4, 1-(1-Methyl-1H-pyrrol-2-yl)-3-(5-(2-nitro-4-chlorophenyl)furan-2-yl)prop-2-en-1-one] | 100 (≈ 280 µM) | 200 (≈ 561 µM) | 200 (≈ 561 µM) | 100 (≈ 280 µM) | 100 (≈ 280 µM) | 200 (≈ 561 µM) | 100 (≈ 280 µM) | 50 (≈ 140 µM) | 200 (≈ 561 µM) | > 357 | > 357 | 100 (≈ 280 µM) | 133 to 134 | – | 36 (≈ 101 µM) | antifungal activity in ATP bioluminescence assay [16]: antifungal activity close to ketoconazole |

Now from value to compound, other results behind:

| MIC [1] [µg/mL] | MIC [2] [µg/mL] | MIC [3] [µg/mL] | MIC [4] [µg/mL] | MIC [5] [µg/mL] | MIC [10] [µg/mL] | MIC [11] [µg/mL] | MIC [12] [µg/mL] | MIC [13] [µg/mL] | IC50 [6] [µg/mL] | IC50 [7] [µg/mL] | IC50 [8] [µg/mL] | melting point [°C] | Structure (SMILES) | antimicrobial activity in ATP bioluminescence assay [14] | IC50 [9] [µg/mL] | also measured |
| --- | --- | --- | --- | --- | --- | --- | --- | --- | --- | --- | --- | --- | --- | --- | --- | --- |
| 25 (≈ 77.4 µM) | 50 (≈ 155 µM) | 100 (≈ 309 µM) | 50 (≈ 155 µM) | 25 (≈ 77.4 µM) | – | – | – | – | – | – | – | – | O=C(N[C@H](CO)[C@H](O)c1ccc([N+](=O)[O-])cc1)C(Cl)Cl [Chloramphenicol, reference compound] | – | – | – |
| 100 (≈ 310 µM) | 100 (≈ 310 µM) | 200 (≈ 621 µM) | 200 (≈ 621 µM) | 200 (≈ 621 µM) | 100 (≈ 310 µM) | 200 (≈ 621 µM) | 100 (≈ 310 µM) | 200 (≈ 621 µM) | 0.3 (≈ 0.931 µM) | 84 (≈ 261 µM) | 322 (≈ 999 µM) | 179 to 181 | Cn1cccc1C(=O)C=Cc1ccc(-c2ccc([N+](=O)[O-])cc2)o1 [Compound 1, 1-(1-Methyl-1H-pyrrol-2-yl)-3-(5-(4-nitrophenyl)furan-2-yl)prop-2-en-1-one] | sensitive | 109 (≈ 338 µM) | – |
| 100 (≈ 310 µM) | 100 (≈ 310 µM) | 100 (≈ 310 µM) | 200 (≈ 621 µM) | 200 (≈ 621 µM) | 100 (≈ 310 µM) | 100 (≈ 310 µM) | 100 (≈ 310 µM) | 100 (≈ 310 µM) | 322 (≈ 999 µM) | 258 (≈ 800 µM) | 277 (≈ 859 µM) | 123 to 124 | Cn1cccc1C(=O)C=Cc1ccc(-c2cccc([N+](=O)[O-])c2)o1 [Compound 2, 1-(1-Methyl-1H-pyrrol-2-yl)-3-(5-(3-nitrophenyl)furan-2-yl)prop-2-en-1-one] | sensitive | > 322 | antimicrobial activity in ATP bioluminescence assay [15]: antimicrobial activity close to chloramphenicol |
